ChEMBL document CHEMBL3046292, “The effects of luteolin on phenoloxidase and the growth of Spodoptera exigua (Hubner) larvae (Lepidoptera: Noctuidae)” (J Pestic Sci, 2010)
Converted amounts (≈) assume the structure as drawn. The source made the active and inactive calls. No cut-off for these calls is given here.

Columns and labels:
[1] = biological target: T1, Phenol oxidase (Plutella xylostella) (UniProt B5U2Z5); assay: In vivo inhibition of Spodoptera exigua larvae phenoloxidase
T1 sequence (whole entry): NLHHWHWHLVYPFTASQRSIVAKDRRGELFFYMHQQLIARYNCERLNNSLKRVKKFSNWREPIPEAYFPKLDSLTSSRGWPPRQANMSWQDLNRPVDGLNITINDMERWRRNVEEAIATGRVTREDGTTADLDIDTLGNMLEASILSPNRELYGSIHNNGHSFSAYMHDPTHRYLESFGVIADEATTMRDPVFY

Spodoptera exigua [2] = assay: Insecticidal activity against third-instar Spodoptera exigua larvae assessed as mortality treated after 9 days; type: functional; details: 216 h
Spodoptera exigua [3] = assay: Insecticidal activity against third-instar Spodoptera exigua larvae assessed as mortality at 8 g/l measured after 9 days; type: functional; details: 216 h
Spodoptera exigua [4] = assay: Insecticidal activity against third-instar Spodoptera exigua larvae assessed as mortality at 4 g/l measured after 9 days; type: functional; details: 216 h
Spodoptera exigua [5] = assay: Insecticidal activity against third-instar Spodoptera exigua larvae assessed as mortality treated after 11 days; type: functional; details: 264 h
Spodoptera exigua [6] = assay: Insecticidal activity against third-instar Spodoptera exigua larvae assessed as per pupa weight at 0.8 g/l by pupa weight inhibition assay (reference value: 0.1054 +/- 0.01 g/pupae); type: functional
Spodoptera exigua [7] = assay: Insecticidal activity against third-instar Spodoptera exigua larvae assessed as mortality treated after 7 days; type: functional; details: 168 h
Spodoptera exigua [8] = assay: Insecticidal activity against third-instar Spodoptera exigua larvae assessed as per pupa weight at 1.6 g/l by pupa weight inhibition assay (reference value: 0.1054 +/- 0.01 g/pupae); type: functional
Spodoptera exigua [9] = assay: Insecticidal activity against third-instar Spodoptera exigua larvae assessed as mortality at 16 g/l measured after 9 days; type: functional; details: 216 h
Spodoptera exigua [10] = assay: Insecticidal activity against third-instar Spodoptera exigua larvae assessed as per pupa weight at 0.1 g/l by pupa weight inhibition assay (reference value: 0.1054 +/- 0.01 g/pupae); type: functional
Spodoptera exigua [11] = assay: Insecticidal activity against third-instar Spodoptera exigua larvae assessed as mortality at 8 g/l measured after 3 days; type: functional; details: 72 h
Spodoptera exigua [12] = assay: Insecticidal activity against third-instar Spodoptera exigua larvae assessed as pupation at 0.8 g/l (reference value: 96.67 +/- 1.40%); type: functional
Spodoptera exigua [13] = assay: Insecticidal activity against third-instar Spodoptera exigua larvae assessed as eclosion at 0.4 g/l (reference value: 96.67 +/- 1.40%); type: functional
Spodoptera exigua [14] = assay: Insecticidal activity against third-instar Spodoptera exigua larvae assessed as mortality at 8 g/l measured after 5 days; type: functional; details: 120 h
Spodoptera exigua [15] = assay: Insecticidal activity against third-instar Spodoptera exigua larvae assessed as mortality at 8 g/l measured after 7 days; type: functional; details: 168 h
Spodoptera exigua [16] = assay: Insecticidal activity against third-instar Spodoptera exigua larvae assessed as mortality at 16 g/l measured after 7 days; type: functional; details: 168 h
Spodoptera exigua [17] = assay: Insecticidal activity against third-instar Spodoptera exigua larvae assessed as eclosion at 0.1 g/l (reference value: 96.67 +/- 1.40%); type: functional
Spodoptera exigua [18] = assay: Insecticidal activity against third-instar Spodoptera exigua larvae assessed as mortality at 4 g/l measured after 5 days; type: functional; details: 120 h
Spodoptera exigua [19] = assay: Insecticidal activity against third-instar Spodoptera exigua larvae assessed as mortality treated after 5 days; type: functional; details: 120 h
Spodoptera exigua [20] = assay: Insecticidal activity against third-instar Spodoptera exigua larvae assessed as per pupa weight at 0.2 g/l by pupa weight inhibition assay (reference value: 0.1054 +/- 0.01 g/pupae); type: functional
Spodoptera exigua [21] = assay: Insecticidal activity against third-instar Spodoptera exigua larvae assessed as mortality at 4 g/l measured after 7 days; type: functional; details: 168 h
Spodoptera exigua [22] = assay: Insecticidal activity against third-instar Spodoptera exigua larvae assessed as mortality at 2 g/l measured after 7 days; type: functional; details: 168 h
Spodoptera exigua [23] = assay: Insecticidal activity against third-instar Spodoptera exigua larvae assessed as eclosion at 0.8 g/l (reference value: 96.67 +/- 1.40%); type: functional
Spodoptera exigua [24] = assay: Insecticidal activity against third-instar Spodoptera exigua larvae assessed as mortality at 4 g/l measured after 11 days; type: functional; details: 264 h
Spodoptera exigua [25] = assay: Insecticidal activity against third-instar Spodoptera exigua larvae assessed as eclosion at 1.6 g/l (reference value: 96.67 +/- 1.40%); type: functional
Spodoptera exigua [26] = assay: Insecticidal activity against third-instar Spodoptera exigua larvae assessed as mortality at 2 g/l measured after 9 days; type: functional; details: 216 h
Spodoptera exigua [27] = assay: Insecticidal activity against third-instar Spodoptera exigua larvae assessed as inhibition of body weight increase at 4 g/l measured from 24 hr to 48 hr; type: functional
Spodoptera exigua [28] = assay: Insecticidal activity against third-instar Spodoptera exigua larvae assessed as pupation at 1.6 g/l (reference value: 96.67 +/- 1.40%); type: functional
Spodoptera exigua [29] = assay: Insecticidal activity against third-instar Spodoptera exigua larvae assessed as per pupa weight at 0.4 g/l by pupa weight inhibition assay (reference value: 0.1054 +/- 0.01 g/pupae); type: functional
Spodoptera exigua [30] = assay: Insecticidal activity against third-instar Spodoptera exigua larvae assessed as inhibition of body weight increase at 1 g/l measured from 24 hr to 48 hr; type: functional
Spodoptera exigua [31] = assay: Insecticidal activity against third-instar Spodoptera exigua larvae assessed as inhibition of body weight increase at 2 g/l measured from 24 hr to 48 hr; type: functional
Spodoptera exigua [32] = assay: Insecticidal activity against third-instar Spodoptera exigua larvae assessed as mortality at 16 g/l measured after 5 days; type: functional; details: 120 h
Spodoptera exigua [33] = assay: Insecticidal activity against third-instar Spodoptera exigua larvae assessed as mortality at 16 g/l measured after 11 days; type: functional; details: 264 h
Spodoptera exigua [34] = assay: Insecticidal activity against third-instar Spodoptera exigua larvae assessed as pupation at 0.4 g/l (reference value: 96.67 +/- 1.40%); type: functional
Spodoptera exigua [35] = assay: Insecticidal activity against third-instar Spodoptera exigua larvae assessed as mortality at 4 g/l measured after 3 days; type: functional; details: 72 h
Spodoptera exigua [36] = assay: Insecticidal activity against third-instar Spodoptera exigua larvae assessed as mortality at 2 g/l measured after 11 days; type: functional; details: 264 h
Spodoptera exigua [37] = assay: Insecticidal activity against third-instar Spodoptera exigua larvae assessed as pupation at 0.1 g/l (reference value: 96.67 +/- 1.40%); type: functional
Spodoptera exigua [38] = assay: Insecticidal activity against third-instar Spodoptera exigua larvae assessed as pupation at 0.2 g/l (reference value: 96.67 +/- 1.40%); type: functional
Spodoptera exigua [39] = assay: Insecticidal activity against third-instar Spodoptera exigua larvae assessed as mortality at 16 g/l measured after 3 days; type: functional; details: 72 h
Spodoptera exigua [40] = assay: Insecticidal activity against third-instar Spodoptera exigua larvae assessed as inhibition of body weight increase at 8 g/l measured from 24 hr to 48 hr; type: functional
Spodoptera exigua [41] = assay: Insecticidal activity against third-instar Spodoptera exigua larvae assessed as inhibition of body weight increase at 16 g/l measured from 24 hr to 48 hr; type: functional
Spodoptera exigua [42] = assay: Insecticidal activity against third-instar Spodoptera exigua larvae assessed as eclosion at 0.2 g/l (reference value: 96.67 +/- 1.40%); type: functional
[43] = biological target: T1, Phenol oxidase (Plutella xylostella); assay: Inhibition of Spodoptera exigua larvae phenoloxidase assessed as remaining activity at 0.45 mmol/l
Spodoptera exigua [44] = assay: Insecticidal activity against third-instar Spodoptera exigua larvae assessed as mortality at 2 g/l measured after 5 days; type: functional; details: 120 h
[45] = biological target: T1, Phenol oxidase (Plutella xylostella); assay: Inhibition of Spodoptera exigua larvae phenoloxidase assessed as remaining activity at 0.15 mmol/l
Spodoptera exigua [46] = assay: Insecticidal activity against third-instar Spodoptera exigua larvae assessed as mortality at 2 g/l measured after 3 days; type: functional; details: 72 h
Spodoptera exigua [47] = assay: Insecticidal activity against third-instar Spodoptera exigua larvae assessed as mortality at 8 g/l measured after 11 days; type: functional; details: 264 h

O=c1cc(-c2ccc(O)c(O)c2)oc2cc(O)cc(O)c12 [LUTEOLIN]
inhibition [1]: Active
LC50 (Spodoptera exigua [2]): 3540 µg/mL (≈ 12.4 mM)
mortality at 8000 µg/mL (Spodoptera exigua [3]): 72.9%
mortality at 4000 µg/mL (Spodoptera exigua [4]): 57.4%
LC50 (Spodoptera exigua [5]): 2530 µg/mL (≈ 8.84 mM)
Activity (Spodoptera exigua [6]): 0.0743 g
LC50 (Spodoptera exigua [7]): 5560 µg/mL (≈ 19.4 mM)
Activity (Spodoptera exigua [8]): 0.0647 g
mortality at 16000 µg/mL (Spodoptera exigua [9]): 84.1%
Activity (Spodoptera exigua [10]): 0.0905 g
mortality at 8000 µg/mL (Spodoptera exigua [11]): 29.8%
Activity (Spodoptera exigua [12]): 53.33%
Activity (Spodoptera exigua [13]): 66.67%
mortality at 8000 µg/mL (Spodoptera exigua [14]): 47.3%
mortality at 8000 µg/mL (Spodoptera exigua [15]): 57.7%
mortality at 16000 µg/mL (Spodoptera exigua [16]): 74.5%
Activity (Spodoptera exigua [17]): 86.67%
mortality at 4000 µg/mL (Spodoptera exigua [18]): 38%
LC50 (Spodoptera exigua [19]): 8970 µg/mL (≈ 31.3 mM)
Activity (Spodoptera exigua [20]): 0.0898 g
mortality at 4000 µg/mL (Spodoptera exigua [21]): 48.5%
mortality at 2000 µg/mL (Spodoptera exigua [22]): 26.3%
Activity (Spodoptera exigua [23]): 43.33%
mortality at 4000 µg/mL (Spodoptera exigua [24]): 61%
Activity (Spodoptera exigua [25]): 36.67%
mortality at 2000 µg/mL (Spodoptera exigua [26]): 33.8%
inhibition at 4000 µg/mL (Spodoptera exigua [27]): 49.6%
Activity (Spodoptera exigua [28]): 36.67%
Activity (Spodoptera exigua [29]): 0.0798 g
inhibition at 1000 µg/mL (Spodoptera exigua [30]): 38%
inhibition at 2000 µg/mL (Spodoptera exigua [31]): 42.7%
mortality at 16000 µg/mL (Spodoptera exigua [32]): 60.6%
mortality at 16000 µg/mL (Spodoptera exigua [33]): 90.5%
Activity (Spodoptera exigua [34]): 70%
mortality at 4000 µg/mL (Spodoptera exigua [35]): 23.5%
mortality at 2000 µg/mL (Spodoptera exigua [36]): 42.6%
Activity (Spodoptera exigua [37]): 96.67%
Activity (Spodoptera exigua [38]): 90%
mortality at 16000 µg/mL (Spodoptera exigua [39]): 33.2%
inhibition at 8000 µg/mL (Spodoptera exigua [40]): 56.8%
inhibition at 16000 µg/mL (Spodoptera exigua [41]): 66.8%
Activity (Spodoptera exigua [42]): 83.33%
Activity [43]: 45.3%
mortality at 2000 µg/mL (Spodoptera exigua [44]): 15.8%
Activity [45]: 67.2%
mortality at 2000 µg/mL (Spodoptera exigua [46]): 10.1%
mortality at 8000 µg/mL (Spodoptera exigua [47]): 77.7%
